The source of these data is patent publication US8916593B2, “Alkoxy-substituted 2-aminopyridines as ALK inhibitors” (Pfizer Inc., priority 2010, dated 2014).

One assay addresses T1, ALK enzyme (Homo sapiens, UniProt Q9UM73).
T1 construct: purchased Invitrogen PV4185
Put plainly: ALK enzymatic activity assay 1. In kind it is biochemical. On the procedure:
ALK Enzymatic Activity Assay 1
Compounds were added at a final concentration of 1% DMSO in half-log dilutions, starting at 20 μM final concentration. The reactions were initiated by the addition of 10 μL of peptide/ATP mix to 10 μL enzyme and 2 μL of compound in 384-well plate. […] On the 12-sipper chip, substrate and phosphorylated product were separated with an upstream voltage of −2650 V, a downstream voltage of −500 V, and a screen pressure of −1.5 psi. The relative peak heights of substrate and product were measured and ratios were calculated using HTS Well Analyzer Software version 5.2.43 from the manufacturer.

The target in assay [1] is EML4-ALK wt v1 in NIH-3T3 cells (Homo sapiens, UniProt Q9UM73).
In assay [2] the target is T2, human recombinant wild-type ALK kinase domain (amino acids 1093-1411) (Homo sapiens, UniProt Q9UM73).
T2 construct: ALK kinase domain (amino acids 1093-1411); made in house
Put plainly: ALK enzyme assay 2 (microfluidic mobility shift assay).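 Note: kinase reaction run 1 h at room temperature, conversion quantified by electrophoretic separation of fluorescent peptide substrate from phosphorylated product, about 15-20% turnover without inhibitor.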 The format is biochemical.
Description: The reactions were incubated for 1 h at room temperature, stopped by the addition of 0.1 M EDTA, pH 8, and the extent of reactions (˜15-20% conversion with no inhibitor) was determined after electrophoretic separation of the fluorescently labeled peptide substrate and phosphorylated product on an LabChip EZ Reader II (Caliper Life Sciences, Hopkinton, Mass.).

The target of another assay is T3, cMet enzyme (Homo sapiens, UniProt P08581).
T3 construct: RTC Lot#032006
Put plainly: cMet enzymatic activity assay. The format is biochemical. Particulars: purified cMet enzyme 7.5 nM, ATP 17 μM (Km).

SMILES strings stand for the structures.

T1 sequence (Q9UM73 19-1620): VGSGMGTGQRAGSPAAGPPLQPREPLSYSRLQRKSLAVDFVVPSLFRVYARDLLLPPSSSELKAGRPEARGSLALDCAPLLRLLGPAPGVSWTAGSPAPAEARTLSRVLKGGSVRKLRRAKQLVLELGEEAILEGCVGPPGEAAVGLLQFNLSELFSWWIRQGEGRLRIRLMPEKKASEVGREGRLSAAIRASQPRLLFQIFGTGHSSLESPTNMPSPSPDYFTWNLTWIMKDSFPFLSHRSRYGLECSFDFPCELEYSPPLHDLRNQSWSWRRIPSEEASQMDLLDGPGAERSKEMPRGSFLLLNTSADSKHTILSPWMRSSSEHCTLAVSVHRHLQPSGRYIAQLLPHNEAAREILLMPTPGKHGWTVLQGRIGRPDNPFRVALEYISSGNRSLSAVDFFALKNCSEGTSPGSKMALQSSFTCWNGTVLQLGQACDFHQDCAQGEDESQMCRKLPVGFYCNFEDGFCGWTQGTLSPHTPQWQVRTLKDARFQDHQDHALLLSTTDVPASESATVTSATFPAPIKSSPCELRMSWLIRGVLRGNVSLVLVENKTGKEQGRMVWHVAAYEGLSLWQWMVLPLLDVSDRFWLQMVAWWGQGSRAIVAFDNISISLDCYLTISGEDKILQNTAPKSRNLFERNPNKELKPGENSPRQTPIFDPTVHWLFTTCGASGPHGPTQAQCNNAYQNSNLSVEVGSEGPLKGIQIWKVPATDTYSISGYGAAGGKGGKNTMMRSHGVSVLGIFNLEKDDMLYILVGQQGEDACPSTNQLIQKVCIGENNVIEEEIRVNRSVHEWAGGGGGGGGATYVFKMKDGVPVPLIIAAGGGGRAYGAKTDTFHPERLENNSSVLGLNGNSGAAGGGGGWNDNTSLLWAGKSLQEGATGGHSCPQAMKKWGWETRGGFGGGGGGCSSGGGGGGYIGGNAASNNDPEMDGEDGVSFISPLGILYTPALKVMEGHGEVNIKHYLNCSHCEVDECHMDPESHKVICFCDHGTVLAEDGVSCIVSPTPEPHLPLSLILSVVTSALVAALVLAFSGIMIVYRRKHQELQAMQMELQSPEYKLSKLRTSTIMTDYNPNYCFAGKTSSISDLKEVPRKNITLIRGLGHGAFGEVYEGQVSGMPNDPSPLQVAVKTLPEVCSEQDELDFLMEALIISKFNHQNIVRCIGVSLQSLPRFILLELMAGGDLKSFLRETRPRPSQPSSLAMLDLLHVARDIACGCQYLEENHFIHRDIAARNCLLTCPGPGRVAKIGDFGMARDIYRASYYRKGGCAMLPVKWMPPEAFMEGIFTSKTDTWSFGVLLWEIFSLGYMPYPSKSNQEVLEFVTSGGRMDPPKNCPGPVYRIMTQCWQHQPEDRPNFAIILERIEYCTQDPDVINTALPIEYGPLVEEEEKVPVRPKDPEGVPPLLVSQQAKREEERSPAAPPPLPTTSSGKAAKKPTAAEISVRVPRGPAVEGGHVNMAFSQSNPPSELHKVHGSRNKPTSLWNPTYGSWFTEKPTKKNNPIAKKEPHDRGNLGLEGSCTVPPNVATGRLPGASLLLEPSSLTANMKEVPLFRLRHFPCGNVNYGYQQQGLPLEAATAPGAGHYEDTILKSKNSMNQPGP
T2 sequence (Q9UM73 1093-1411): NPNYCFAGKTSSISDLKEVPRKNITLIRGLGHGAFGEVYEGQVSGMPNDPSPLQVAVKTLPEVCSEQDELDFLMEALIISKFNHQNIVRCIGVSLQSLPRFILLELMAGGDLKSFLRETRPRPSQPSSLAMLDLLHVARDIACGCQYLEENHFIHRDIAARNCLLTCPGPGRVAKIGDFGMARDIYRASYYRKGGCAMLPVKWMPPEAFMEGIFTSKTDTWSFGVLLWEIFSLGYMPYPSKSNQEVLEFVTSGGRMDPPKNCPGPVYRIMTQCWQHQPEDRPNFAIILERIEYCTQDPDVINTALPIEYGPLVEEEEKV
Chain of EML4-ALK wt v1 in NIH-3T3 cells (Q9UM73 with tags, fused parts or gaps): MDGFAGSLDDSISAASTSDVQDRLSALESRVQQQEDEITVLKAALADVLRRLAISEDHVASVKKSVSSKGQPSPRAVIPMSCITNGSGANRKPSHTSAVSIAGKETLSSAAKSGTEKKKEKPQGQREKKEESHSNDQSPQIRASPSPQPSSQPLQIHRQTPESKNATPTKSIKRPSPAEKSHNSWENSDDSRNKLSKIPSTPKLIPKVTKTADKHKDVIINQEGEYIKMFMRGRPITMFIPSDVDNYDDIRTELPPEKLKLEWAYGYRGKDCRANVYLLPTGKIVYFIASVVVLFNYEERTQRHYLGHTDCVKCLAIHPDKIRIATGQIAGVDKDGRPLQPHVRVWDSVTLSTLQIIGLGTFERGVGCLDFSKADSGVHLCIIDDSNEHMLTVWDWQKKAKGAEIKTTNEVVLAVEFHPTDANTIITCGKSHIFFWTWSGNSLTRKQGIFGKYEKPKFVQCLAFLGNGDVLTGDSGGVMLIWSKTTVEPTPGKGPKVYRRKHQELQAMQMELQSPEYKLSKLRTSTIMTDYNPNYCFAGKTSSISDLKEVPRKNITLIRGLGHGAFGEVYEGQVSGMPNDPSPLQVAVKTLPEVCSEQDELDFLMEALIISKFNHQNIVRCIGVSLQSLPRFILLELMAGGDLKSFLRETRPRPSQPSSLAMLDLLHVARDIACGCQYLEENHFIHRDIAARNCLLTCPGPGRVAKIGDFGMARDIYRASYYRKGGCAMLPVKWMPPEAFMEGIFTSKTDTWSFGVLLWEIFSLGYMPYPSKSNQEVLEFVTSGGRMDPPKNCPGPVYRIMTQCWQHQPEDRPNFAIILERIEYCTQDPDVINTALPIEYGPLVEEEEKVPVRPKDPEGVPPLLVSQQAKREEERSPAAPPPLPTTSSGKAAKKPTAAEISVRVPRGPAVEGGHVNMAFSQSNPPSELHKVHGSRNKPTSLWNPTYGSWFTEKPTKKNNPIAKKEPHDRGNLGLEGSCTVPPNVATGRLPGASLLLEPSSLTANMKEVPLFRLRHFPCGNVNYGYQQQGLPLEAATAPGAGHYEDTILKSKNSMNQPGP
T3 sequence (P08581 25-1390): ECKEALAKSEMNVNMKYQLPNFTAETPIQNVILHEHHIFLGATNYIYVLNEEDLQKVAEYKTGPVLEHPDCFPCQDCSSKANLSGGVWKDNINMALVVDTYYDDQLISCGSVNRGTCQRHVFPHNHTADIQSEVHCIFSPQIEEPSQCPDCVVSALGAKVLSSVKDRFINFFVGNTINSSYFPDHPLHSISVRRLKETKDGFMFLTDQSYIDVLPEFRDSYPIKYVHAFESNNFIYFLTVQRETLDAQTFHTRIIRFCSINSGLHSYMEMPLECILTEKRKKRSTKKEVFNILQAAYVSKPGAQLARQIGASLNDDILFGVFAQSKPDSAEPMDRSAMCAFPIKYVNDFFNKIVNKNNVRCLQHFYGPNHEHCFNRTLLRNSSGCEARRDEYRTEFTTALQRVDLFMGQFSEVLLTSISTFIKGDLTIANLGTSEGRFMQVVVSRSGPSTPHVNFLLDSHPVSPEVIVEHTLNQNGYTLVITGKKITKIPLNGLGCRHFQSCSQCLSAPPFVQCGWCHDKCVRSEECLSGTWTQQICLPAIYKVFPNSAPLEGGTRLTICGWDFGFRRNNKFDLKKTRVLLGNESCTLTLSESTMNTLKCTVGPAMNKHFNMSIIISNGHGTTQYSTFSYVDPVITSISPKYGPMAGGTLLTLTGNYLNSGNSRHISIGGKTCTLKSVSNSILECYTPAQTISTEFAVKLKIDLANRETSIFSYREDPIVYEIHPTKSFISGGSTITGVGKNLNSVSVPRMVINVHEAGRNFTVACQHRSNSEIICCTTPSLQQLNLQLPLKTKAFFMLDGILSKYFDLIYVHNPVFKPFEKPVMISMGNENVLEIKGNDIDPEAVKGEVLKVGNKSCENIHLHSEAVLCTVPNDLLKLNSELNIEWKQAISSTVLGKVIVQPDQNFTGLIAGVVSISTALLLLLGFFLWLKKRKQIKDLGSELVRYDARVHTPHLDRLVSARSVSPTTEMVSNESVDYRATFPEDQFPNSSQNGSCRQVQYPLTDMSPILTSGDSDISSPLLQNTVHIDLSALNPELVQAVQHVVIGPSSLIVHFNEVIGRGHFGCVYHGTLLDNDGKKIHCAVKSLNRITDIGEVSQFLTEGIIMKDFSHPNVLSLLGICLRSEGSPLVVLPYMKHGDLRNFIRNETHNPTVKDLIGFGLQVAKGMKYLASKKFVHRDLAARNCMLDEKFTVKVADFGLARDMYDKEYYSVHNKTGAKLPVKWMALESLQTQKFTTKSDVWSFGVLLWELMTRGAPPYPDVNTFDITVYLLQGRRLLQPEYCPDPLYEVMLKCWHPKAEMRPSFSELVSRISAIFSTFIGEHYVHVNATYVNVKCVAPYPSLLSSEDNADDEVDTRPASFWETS

As for `CC(Oc1cc(-c2ccnn2C)cnc1N)c1cc(F)ccc1-c1ncco1` (stereo not shown) [Example 62, 3-{1-[5-fluoro-2-(1,3-oxazol-2-yl)phenyl]ethoxy}-5-(1-methyl-1H-pyrazol-5-yl)pyridin-2-amine], the IC50 (usually the concentration at which inhibition is half-maximal) worked out at 0.0505 µM at ALK enzyme, 0.191 µM in assay [1] and 2.81 µM on cMet enzyme. Further, the Ki (in general, the dissociation constant of the complex between target and ligand, obtained from inhibition or displacement) in assay [2] is 0.00452 µM.
